From article PMC10552397 (Cell Communication and Signaling : CCS, 2023)
“And” between values parts separate entries of the source, which are not always exact repeats. Identical values can stand only once.

Legend:
[1] = target: T1, proteins of HeLa wt cells (Homo sapiens, UniProt P30837); experiment: biochemical; conditions: for normalized.Reporter.intensity: single replicates n1-n3
T1 sequence (P30837 18-517): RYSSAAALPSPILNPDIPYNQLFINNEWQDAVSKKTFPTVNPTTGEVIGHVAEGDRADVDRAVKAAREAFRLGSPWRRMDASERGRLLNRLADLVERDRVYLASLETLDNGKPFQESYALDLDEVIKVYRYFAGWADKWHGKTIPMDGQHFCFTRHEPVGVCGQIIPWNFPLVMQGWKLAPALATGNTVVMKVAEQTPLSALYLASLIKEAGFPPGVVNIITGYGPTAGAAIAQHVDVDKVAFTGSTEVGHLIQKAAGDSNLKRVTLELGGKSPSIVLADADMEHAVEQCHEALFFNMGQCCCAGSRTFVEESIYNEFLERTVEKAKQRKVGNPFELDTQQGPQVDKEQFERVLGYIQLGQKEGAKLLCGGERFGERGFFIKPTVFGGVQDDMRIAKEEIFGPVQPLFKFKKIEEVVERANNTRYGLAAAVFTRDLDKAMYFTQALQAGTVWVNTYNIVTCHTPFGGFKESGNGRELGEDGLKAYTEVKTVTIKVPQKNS
Description: Adherent cells were washed in the dish once with DPBS and harvested by Trypsin–EDTA (0.25%, Thermo Fisher Scientific, Waltham, MA, USA, #25,200,056) treatment. After addition of 35 mL DPBS, the cells were pelleted by centrifugation (300 rcf, 5 min, 4 °C), and washed twice by re-suspending and pelleting using 45 mL and 1 mL DPBS, respectively, to remove excess trypsin and for transfer into pre-weighed 2 mL Eppendorf tubes to determine the cell pellet wet weights as quality check after centrifugation (300 rcf, 5 min, 4 °C) and complete removal of the supernatant. Cells for TPP-TR were resuspended using 1 mL, and cells for TPP-CCR were resuspended using 0.4 mL ice-cold DPBS, respectively, supplemented with protease inhibitor cocktail (Roche, Basel, Switzerland, #5,892,791,001). […] Cell suspensions were shortly centrifuged (1 s or less) using a benchtop centrifuge to release trapped air and to achieve an even liquid level without pelleting the cells. The samples were then temperature treated by a 7 min pre-incubation at RT, 3 min temperature treatment in the PCR cycler (DNA Engine Tetrad 2, lid temperature 70 °C) at different temperatures (37 °C or 50 °C for TPP-CCR or the temperatures given in Table 2 for TPP-TR) and a 3 min post-incubation at RT in a metal heating block for uniform heat dissipation.
After temperature treatment, samples were supplemented with lysis buffer (final concentrations: 0.36 U/µL benzonase, 1.5 mM MgCl2, 1 mM Na3VO4, 10 mM NaF, 2.5 mM Na4P2O7, 0.8% w/v NP-40) for 1 h on ice. The lysates were cleared from cell debris as well as denatured and precipitated proteins by centrifugation at 20,000 rcf and 4 °C for 30 min. The total protein concentration of the resulting cell extracts containing the fraction of soluble, non-denatured proteins was determined (Pierce 660 nm Protein Assay, BSA as standard). Cell extracts were shock frozen in liquid nitrogen and stored at -80 °C. The three replicates for TPP-TR and TPP-CCR were prepared on consecutive days, respectively. The two (37 °C or 50 °C) x ten (concentrations) x three (replicates) = 60 TPP-CCR samples and two (treatment and control) x ten (temperatures) x three (replicates) = 60 TPP-TR samples were analyzed by LC–MS/MS. GRASP55 was additionally quantified from the TPP-TR samples by immunoblotting as described in the respective section.
For TPP-CCR, SP3 was performed as described with slight modifications to the original protocol using on average 5 µg total protein per sample and resulting in theoretically 5 µg peptides in 22 µL 50 mM triethylammonium bicarbonate per sample. For each of the two (treatment and control) x three (replicates) = six TPP-TR temperature treatment sample sets, the same volume for each of the ten temperature samples was used for SP3 processing, thus, maintaining the information about the temperature dependent non-denatured protein content. This volume was calculated such that the lowest two temperature samples (36.5 °C and 41.2 °C) contained 10 µg total protein on average. The samples were diluted using SDS containing buffer (20 µL final, final concentrations: 7.5% glycerol, 3% SDS, 37.5 mM Tris/HCl pH 7.0) and the proteins were reduced, alkylated, and precipitated on the solid phase as described using adjusted volumes (2 × due to processing 10 µg instead of 5 µg). Volumes for washing of the aggregated proteins on the solid phase and for tryptic digestion were kept unchanged, however, to maintain the maximal total protein to trypsin/Lys-C ratio at 50:1 in the two rounds of digestion (13 h and 4 h), respectively, 2 × 0.2 µg trypsin/Lys-C was used per sample, theoretically resulting in at most about 10 µg peptides in 22 µL 50 mM triethylammonium bicarbonate.

HeLa wt cells = experiment: Immunofluorescence of LC3 and LAMP1; format: cell-based; conditions: 2 h; prodigiosin 100 nM, BafA1 10 nM
Description: For immunofluorescence microscopy, HeLa cells were seeded on glass coverslips in 24-well plates. After treatment, cells were fixed in 4% paraformaldehyde for 15 min on ice, quenched with 50 mM NH4Cl for 15 min and permeabilized with 50 µg/mL digitonin (Sigma-Aldrich, St. Louis, MO, USA, #D141) for 5 min. Fixed samples were blocked with 3% BSA (Roth, Karlsruhe, Germany, #8076) for 30 min or overnight and incubated with primary antibodies diluted in 3% BSA for 2 h. Samples were then washed three times with DPBS, incubated with the appropriate secondary antibodies diluted in 3% BSA for 30 min and washed three times with DPBS. Afterwards, cells were embedded in ProLong Glass Antifade Mountant (Thermo Fisher Scientific, Waltham, MA, USA, #P36980) containing 1 µg/mL DAPI (Roth, Karlsruhe, Germany, #6335.1). Images were recorded with an Axio Observer 7 fluorescence microscope (Carl Zeiss Microscopy, Oberkochen, Germany) using a 40x/1,4 Oil DIC M27 Plan-Apochromat objective (Carl Zeiss Microscopy, Oberkochen, Germany) and an ApoTome 2 (Carl Zeiss Microscopy, Oberkochen, Germany).

**Q.** For `CCCCCC1=C/C(=C/c2[nH]c(-c3ccc[nH]3)cc2OC)N=C1C` [Prodigiosin, prodigiosin], which EC50 [1] is on record?
**A.** The EC50 was 4.37 nM.

**Q.** What about the “diff pseudoR2(50-37°C)” value ([1]; ALDH1B1) of the same compound?
**A.** Its value is 0.88.

**Q.** What about the “pseudoR2 (dose response curve fit, 37°C)” value ([1]; ALDH1B1, 37°C) of the same compound?
**A.** Its value is 0.0136.

**Q.** And the normalized.Reporter.intensity ([1]; ALDH1B1, 37°C, 0.0976562 nM prodigiosin)?
**A.** The normalized.Reporter.intensity was -0.04 and -1.95 and 1.19.

**Q.** What about the normalized.Reporter.intensity ([1]; ALDH1B1, 37°C, 0.390625 nM prodigiosin) of the same compound?
**A.** The normalized.Reporter.intensity was 0.86 and 1.70 and 1.19.

**Q.** What about the normalized.Reporter.intensity ([1]; ALDH1B1, 37°C, 1.5625 nM prodigiosin) of the same compound?
**A.** Its normalized.Reporter.intensity is 1.45 and -0.51 and 0.96.

**Q.** And the normalized.Reporter.intensity ([1]; ALDH1B1, 37°C, 6.25 nM prodigiosin)?
**A.** The normalized.Reporter.intensity was 2.17 and -0.34 and 2.41.

**Q.** And the normalized.Reporter.intensity ([1]; ALDH1B1, 37°C, 25 nM prodigiosin)?
**A.** The normalized.Reporter.intensity was 1.79 and 0.42 and 0.87.

**Q.** And the normalized.Reporter.intensity ([1]; ALDH1B1, 37°C, 100 nM prodigiosin)?
**A.** Its normalized.Reporter.intensity is -0.83 and -1.09 and 2.36.

**Q.** What about the normalized.Reporter.intensity ([1]; ALDH1B1, 37°C, 400 nM prodigiosin) of the same compound?
**A.** The normalized.Reporter.intensity was -1.07 and -1.13 and 1.65.

**Q.** And the normalized.Reporter.intensity ([1]; ALDH1B1, 37°C, 1600 nM prodigiosin)?
**A.** The normalized.Reporter.intensity was -1.06 and 0.17 and 2.67.

**Q.** And the normalized.Reporter.intensity ([1]; ALDH1B1, 37°C, 6400 nM prodigiosin)?
**A.** The normalized.Reporter.intensity was -0.10 and 1.67 and -1.95.

**Q.** And the “H (dose response curve fit parameters, 37°C)” value ([1]; ALDH1B1, 37°C, Hill slope of fit)?
**A.** Its value is 1.47e-8.

**Q.** And the “pseudoR2 (dose response curve fit, 50°C)” value ([1]; ALDH1B1, 50°C)?
**A.** The value was 0.89.

**Q.** What about the normalized.Reporter.intensity ([1]; ALDH1B1, 50°C, 0.0976562 nM prodigiosin) of the same compound?
**A.** Its normalized.Reporter.intensity is 0.23 and -0.0339 and 0.17.

**Q.** What about the normalized.Reporter.intensity ([1]; ALDH1B1, 50°C, 0.390625 nM prodigiosin) of the same compound?
**A.** The normalized.Reporter.intensity was 0.32 and 0.04 and 0.17.

**Q.** And the normalized.Reporter.intensity ([1]; ALDH1B1, 50°C, 1.5625 nM prodigiosin)?
**A.** Its normalized.Reporter.intensity is 0.40 and 0.42 and 0.21.

**Q.** What about the normalized.Reporter.intensity ([1]; ALDH1B1, 50°C, 6.25 nM prodigiosin) of the same compound?
**A.** Its normalized.Reporter.intensity is 0.69 and 0.56 and 0.41.

**Q.** What about the normalized.Reporter.intensity ([1]; ALDH1B1, 50°C, 25 nM prodigiosin) of the same compound?
**A.** The normalized.Reporter.intensity was 0.66 and 0.74 and 0.67.

**Q.** What about the normalized.Reporter.intensity ([1]; ALDH1B1, 50°C, 100 nM prodigiosin) of the same compound?
**A.** Its normalized.Reporter.intensity is 1.06 and 0.92 and 1.01.

**Q.** And the normalized.Reporter.intensity ([1]; ALDH1B1, 50°C, 400 nM prodigiosin)?
**A.** Its normalized.Reporter.intensity is 0.70 and 0.97 (2×).

**Q.** What about the normalized.Reporter.intensity ([1]; ALDH1B1, 50°C, 1600 nM prodigiosin) of the same compound?
**A.** The normalized.Reporter.intensity was 0.78 and 0.95 and 0.92.

**Q.** And the normalized.Reporter.intensity ([1]; ALDH1B1, 50°C, 6400 nM prodigiosin)?
**A.** The normalized.Reporter.intensity was 1.11 and 0.90 and 1.01.

**Q.** And the “H (dose response curve fit parameters, 50°C)” value ([1]; ALDH1B1, 50°C, Hill slope of fit)?
**A.** Its value is 0.60.

**Q.** What about the LC3-positive structures (HeLa wt cells) of the same compound?
**A.** The LC3-positive structures was “increase”.

**Q.** What about the “co-localization of LC3- and LAMP1-positive structures” value (HeLa wt cells) of the same compound?
**A.** The value was “highly significant increase”.
